# Values of other authors in PubChem BioAssay AID1259409 (Chemical Carcinogenesis Research Information System (CCRIS), 2018).
# Test system: rodent chemically induced tumor inhibition, incidence and multiplicity
# Test: CCRIS tumor inhibitor studies
# Conditions: Carcinogen: 7,12-DIMETHYLBENZ[A]ANTHRACENE; 57-97-6; Dose [Inhibitor]: 0; 0.5 ML 2/WK FOR 19 WK BEGINNING 1 WK POST CARCINOGEN DOSE ADMINISTERED TO RATS FED HIGH-FAT (20% CORN OIL) DIETS (STU; Route [Inhibitor]: GAVAGE; Species: RAT; Strain/Sex: SPRAGUE-DAWLEY/FEMALE; Target Tissue: Type of Lesion: MAMMARY GLAND: ADENOCARCINOMA; Dose [Carcinogen]: 5 MG ONCE AT 50 D OF AGE; Promoter: NONE USED
smiles,measurement,value
CC/C=C\C/C=C\C/C=C\C/C=C\C/C=C\C/C=C\CCC(=O)O,"tumour outcome (control, treated, inhibition, significance)","24/30 (80%), 6/24 (25%), 69%, p<0.05"
